Values quoted from earlier work in US20080293821A1, “Cooling compositions” (priority 2007, published 2008).

Molecular target: T1, recombinant cold-menthol receptor TRPM8 (mTRPM8) (Mus musculus, UniProt Q8R4D5)
T1 construct: host or cells: HEK293 cells (recombinant expression)
Details: mTRPM8 expressed in HEK293 cells, FLIPR; British Journal of Pharmacology 141, 737-745 (2004)

T1 sequence (Q8R4D5 whole entry): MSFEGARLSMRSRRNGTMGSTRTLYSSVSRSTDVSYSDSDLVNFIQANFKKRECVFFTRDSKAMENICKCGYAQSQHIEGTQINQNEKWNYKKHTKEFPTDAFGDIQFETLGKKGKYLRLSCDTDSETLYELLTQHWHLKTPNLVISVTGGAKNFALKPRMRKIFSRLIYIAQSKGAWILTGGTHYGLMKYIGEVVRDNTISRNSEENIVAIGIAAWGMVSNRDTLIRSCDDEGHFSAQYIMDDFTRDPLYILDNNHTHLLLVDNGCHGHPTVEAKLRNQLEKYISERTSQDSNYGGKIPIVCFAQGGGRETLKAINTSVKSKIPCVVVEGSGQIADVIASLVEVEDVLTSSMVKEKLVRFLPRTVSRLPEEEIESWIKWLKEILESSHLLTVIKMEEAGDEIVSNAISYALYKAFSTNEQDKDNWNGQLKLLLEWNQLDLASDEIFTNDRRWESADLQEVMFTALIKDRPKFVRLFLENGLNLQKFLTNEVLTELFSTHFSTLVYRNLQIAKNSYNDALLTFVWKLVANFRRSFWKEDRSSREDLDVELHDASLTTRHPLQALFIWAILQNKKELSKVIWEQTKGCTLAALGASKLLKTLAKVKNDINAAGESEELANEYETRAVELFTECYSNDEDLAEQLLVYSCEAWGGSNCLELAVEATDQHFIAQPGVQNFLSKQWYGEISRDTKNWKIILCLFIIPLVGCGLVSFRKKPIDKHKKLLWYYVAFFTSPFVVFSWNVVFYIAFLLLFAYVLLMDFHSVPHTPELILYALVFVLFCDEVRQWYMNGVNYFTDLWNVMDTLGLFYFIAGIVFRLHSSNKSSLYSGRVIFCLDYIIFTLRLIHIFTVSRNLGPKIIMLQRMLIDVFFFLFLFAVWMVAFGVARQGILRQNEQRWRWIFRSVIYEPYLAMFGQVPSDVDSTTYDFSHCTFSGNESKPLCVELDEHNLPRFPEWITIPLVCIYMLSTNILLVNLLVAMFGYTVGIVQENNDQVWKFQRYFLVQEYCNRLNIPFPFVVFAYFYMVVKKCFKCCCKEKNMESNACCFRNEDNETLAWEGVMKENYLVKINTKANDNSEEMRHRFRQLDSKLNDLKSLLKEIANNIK

| SMILES | agonist activity on TRPM8 |
| --- | --- |
| CC1CCC(C(C)C)C(OC(=O)C(C)O)C1 (stereo not shown) [Frescolat ML, menthyl lactate] | agonists |
| C=CC(C)(O)CCC=C(C)C (stereo not shown) [linalool] | agonists |
| CC(CC=O)CCCC(C)(C)O (stereo not shown) [hydroxycitronellal] | agonists |
| CC1CCC(C(C)C)C(OCC(O)CO)C1 (stereo not shown) [Cooling Agent 10] | agonists |
| CC(C)=CCC/C(C)=C/CO [geraniol] | agonists |
| C=C(C)[C@@H]1CC[C@@H](C)C[C@H]1O [Coolact P] | agonists |
| CC1CCC(C(C)C)C2(C1)OCC(CO)O2 (stereo not shown) [Frescolat MGA, 6-isopropyl-9-methyl-1,4-dioxaspiro-(4,5)-decane-2-methanol] | agonists |

The remaining lines, values ahead:

| agonist activity on TRPM8 | SMILES |
| --- | --- |
| agonists | C[C@@H]1CC[C@@H](C(C)(C)O)[C@H](O)C1 [PMD38] |
| agonists | CNC(=O)C(C)(C(C)C)C(C)C [WS-23, 2-Isopropyl-N,2,3-trimethylbutyramide] |
| agonists | CCNC(=O)C1CC(C)CCC1C(C)C (stereo not shown) [WS-3, N-Ethyl-p-menthane-3-carboxamide] |
